Laboratory results published in EP4800013A1, “PARG INHIBITOR” (Shanghai Qilu Pharmaceutical Research and Development …, priority 2023, dated 2025).
Read-outs that look alike come from different tables or passages of the source.

How the values were obtained:
KURAMOCHI cells = test: Inhibition of proliferation of KURAMOCHI cells (CellTiter-Glo, intracellular ATP); type: cell-based; conditions: 168 h, incubated for 7 days, read-out: IC50 against KURAMOCHI cells
Summary of the method: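 KURAMOCHI cells seeded at 4000/well, incubated overnight, then treated with 9-point 1:4 compound series from 10 µM (0.5% DMSO) for 7 days at 37°C, 5% CO2. Viability read by CellTiter-Glo luminescence; inhibition normalised to medium-only (100%) and DMSO (0%) controls, IC50 from variable-slope four-parameter fit.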

PARG = target: T1, PARG (Homo sapiens, UniProt Q86W56); test: Enzymatic inhibitory activity against PARG, HTRF assay; type: biochemical
T1 construct: made in house
Summary of the method: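 Purified PARG pre-incubated with compounds (top 10 µM, 3- to 5-fold dilutions, duplicates) 15 min at room temperature, then PARylated PARP1 substrate added for 60 min in Tris pH 7.4 buffer with DTT, EDTA/EGTA, KCl. HTRF (His-Tb/SA-XL665) read-out; IC50 by four-parameter logistic fit, normalised to DMSO and control-inhibitor wells.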

[1] = HTRF, PARylated PARP1 protein as substrate, 60 minutes at room temperature, read-out: IC50 against PARG enzyme

T1 sequence (Q86W56 whole entry): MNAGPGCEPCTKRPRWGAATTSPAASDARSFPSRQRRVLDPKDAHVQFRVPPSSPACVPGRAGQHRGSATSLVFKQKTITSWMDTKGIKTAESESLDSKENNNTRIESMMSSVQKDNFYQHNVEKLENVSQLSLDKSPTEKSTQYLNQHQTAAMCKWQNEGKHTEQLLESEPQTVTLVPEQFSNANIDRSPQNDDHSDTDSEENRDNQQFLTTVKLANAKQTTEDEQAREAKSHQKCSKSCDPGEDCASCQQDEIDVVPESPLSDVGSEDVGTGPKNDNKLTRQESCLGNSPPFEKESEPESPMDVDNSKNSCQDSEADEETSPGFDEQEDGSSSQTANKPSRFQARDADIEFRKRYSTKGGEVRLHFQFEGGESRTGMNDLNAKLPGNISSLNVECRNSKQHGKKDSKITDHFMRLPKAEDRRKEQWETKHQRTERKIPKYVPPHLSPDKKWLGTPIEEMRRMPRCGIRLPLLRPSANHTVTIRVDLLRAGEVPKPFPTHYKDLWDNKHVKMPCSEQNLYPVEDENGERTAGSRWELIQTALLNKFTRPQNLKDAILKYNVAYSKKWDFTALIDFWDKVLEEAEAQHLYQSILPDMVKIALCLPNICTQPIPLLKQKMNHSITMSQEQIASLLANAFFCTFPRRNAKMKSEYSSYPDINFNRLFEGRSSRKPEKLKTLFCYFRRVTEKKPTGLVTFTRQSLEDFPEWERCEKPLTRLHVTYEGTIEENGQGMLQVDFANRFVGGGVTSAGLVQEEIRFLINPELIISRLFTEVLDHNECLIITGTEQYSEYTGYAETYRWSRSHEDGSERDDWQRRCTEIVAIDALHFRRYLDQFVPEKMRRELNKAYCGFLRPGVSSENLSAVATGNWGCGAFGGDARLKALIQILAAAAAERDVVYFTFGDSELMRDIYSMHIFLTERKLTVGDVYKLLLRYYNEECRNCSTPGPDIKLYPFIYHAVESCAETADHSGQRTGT

SMILES	IC50 (KURAMOCHI cells) [nM]	IC50 (PARG; [1]) [nM]	IC50 (PARG) [nM]
C=CCn1c(=O)n(-c2nnc(C(F)F)s2)c2cc(S(=O)(=O)NC3(C#N)CC3)cc(N3CCN(S(=O)(=O)C4CC4)CC3)c21 [Compound 067R]	6	3.4	–
C=CCn1c(=O)n(-c2nnc(C(F)(F)F)s2)c2cc(S(=O)(=O)NC3(C#N)CC3)cc(N3CCN(C(=O)C(C)C)CC3)c21 [Compound 070A]	18	15.3	–
CN(C)C(=O)N1CCN(c2cc(S(=O)(=O)NC3(C#N)CC3)cc3c2n(C)c(=O)n3-c2nnc(C(F)F)s2)CC1 [Compound A013]	13	2.9	–
C[C@H]1CN(c2cc(S(=O)(=O)NC3(C)CC3)cc3c(-c4nnc(C(F)F)s4)c(C4CCCO4)nn23)C[C@H](C)N1 (some centres unmarked) [Compound 083A]	4	2.1	–
C=CCn1c(=O)n(-c2nnc(C(F)F)s2)c2cc(S(=O)(=O)NC3(C#N)CC3)cc(N3CCN(C(=O)C4(O)CCC4)CC3)c21 [Compound 073B]	22	4.5	–
CC(C)C(=O)N1CCN(c2cc(S(=O)(=O)NC3(C)COC3)cc3c2n(C)c(=O)n3-c2nnc(C(F)F)s2)CC1 [Compound A037]	14	6.8	–
CN(C)C(=O)N1CCN(c2cc(S(=O)(=O)NC3(C#N)CC3)cc3c2nc(OC2CC2)n3-c2nnc(C(F)F)s2)CC1 [Compound 057M]	6	2.8	–
CC(C)Oc1nc2c(N3C[C@H](C)N[C@@H](C)C3)cc(S(=O)(=O)NC3(C#N)CC3)cc2n1-c1nnc(C(F)F)s1 [Compound 077H]	5	3	–
CC(C)n1c(=O)n(-c2nnc(C(F)F)s2)c2cc(S(=O)(=O)NC3(C)CC3)cc(N3CCN(C(=O)N(C)C)CC3)c21 [Compound A018]	7	34.1	–
C=CCn1c(=O)n(-c2nnc(C(F)F)s2)c2cc(S(=O)(=O)NC3(C#N)CC3)cc(N3CCN(C(=O)C4CCOC4)CC3)c21 (centres unmarked) [Compound 072B]	53	15.9	–
CN(C)C(=O)N1CCN(c2cc(S(=O)(=O)NC3(CF)CC3)cc3c2n(C)c(=O)n3-c2nnc(C(F)F)s2)CC1 [Compound A032]	5	2.4	–
CN(C)C(=O)N1CCC(c2cc(S(=O)(=O)NC3(C#N)CC3)cc3c2ncn3-c2nnc(C(F)F)s2)CC1 [Compound 059C]	20	6.5	–
C=CCn1c(=O)n(-c2nnc(C(F)F)s2)c2cc(S(=O)(=O)NC3(C#N)CC3)cc(N3CCN(C(=O)C4COC4)CC3)c21 [Compound 067V]	83	13.4	–
Cn1ccnc1N1CCN(c2cc(S(=O)(=O)NC3(C)CC3)cc3c2n(C)c(=O)n3-c2nnc(C(F)F)s2)CC1 [Compound A040]	9	5	–
CC(C)C(=O)N1CCN(c2cc(S(=O)(=O)NC3(C)CC3)cc3c2[nH]c(=O)n3-c2nnc(C(F)F)s2)CC1 [Compound A002]	86	16.4	–
C=CCn1c(=O)n(-c2nnc(C(F)F)s2)c2cc(S(=O)(=O)NC3(C#N)CC3)cc(N3CCN(C(=O)C4(OC)CC4)CC3)c21 [Compound 067N]	3	3.1	–
C[C@H]1CN(c2cc(S(=O)(=O)NC3(C)CC3)cn3c(-c4nnc(C(F)F)s4)c(Cl)nc23)C[C@H](C)N1 [Compound 080K]	4	1.7	–
C[C@H]1CN(c2cc(S(=O)(=O)NC3(C)CC3)cc3c2nc(N2CCOCC2)n3-c2nnc(C(F)F)s2)C[C@H](C)N1 [Compound 077V]	37	21.7	–
[2H]C([2H])([2H])C1(NS(=O)(=O)c2cc(N3C[C@H](C)N[C@@H](C)C3)c3c(c2)n(-c2nnc(C(F)F)s2)c2ncnn32)CC1 [Compound 065O]	3	3.1	–
CC(C)Oc1nc2c(N3C[C@H](C)N[C@@H](C)C3)cc(S(=O)(=O)NC3(C)CC3)cc2n1-c1nnc(C(F)F)s1 [Compound 077G]	2	1.6	–
C=CCn1c(=O)n(-c2nnc(C(F)F)s2)c2cc(S(=O)(=O)NC3(C#N)CC3)cc(N3CCN(C(=O)C(C)(C)NC)CC3)c21 [Compound 067Q]	13	5	–
CC(C)C(=O)N1CCN(c2cc(S(=O)(=O)NC3(CF)CC3)cc3c2n(C)c(=O)n3-c2nnc(C(F)F)s2)CC1 [Compound A033]	9	4	–
CC(C)C(=O)N1CCN(c2cc(S(=O)(=O)NC3(C#N)CC3)cc3c2nc(OC2CC2)n3-c2nnc(C(F)F)s2)CC1 [Compound 057Q]	7	5.1	–
C[C@H]1CN(c2cc(S(=O)(=O)NC3(C)CC3)cn3c(-c4nnc(C(F)F)s4)cnc23)C[C@H](C)N1 [Compound 080J]	5	2.4	–
C=CCn1c(=O)n(-c2nnc(C(F)F)s2)c2cc(S(=O)(=O)NC3(C#N)CC3)cc(N3CCN(C(=O)C4CCC4)CC3)c21 [Compound 067U]	21	20	–

SMILES	IC50 (KURAMOCHI cells) [nM]	IC50 (PARG; [1]) [nM]	IC50 (PARG) [nM]
CC(C)n1c(=O)n(-c2nnc(C(F)F)s2)c2cc(S(=O)(=O)NC3(C#N)CC3)cc(N3CCN(C(=O)C(C)(C)F)CC3)c21 [Compound A048]	27	34.8	–
C[C@H]1CN(c2cc(S(=O)(=O)NC3(C)CC3)cc3c(-c4nnc(C(F)F)s4)c([C@@H]4CCCO4)nn23)C[C@H](C)N1 [Compound 083A2]	3	1	–
[2H]C([2H])([2H])OC1(C(=O)N2CCN(c3cc(S(=O)(=O)NC4(C#N)CC4)cc4c3n(CC=C)c(=O)n4-c3nnc(C(F)F)s3)CC2)CC1 [Compound 067ND]	3	2.3	–
C=CCn1c(=O)n(-c2nnc(C(F)F)s2)c2cc(S(=O)(=O)NC3(C#N)CC3)cc(N3CCN(S(=N)(=O)C(C)C)CC3)c21 (centres unmarked) [Compound 074G]	40	3.3	–
C=CCn1c(=O)n(-c2nnc(C(F)F)s2)c2cc(S(=O)(=O)NC3(C#N)CC3)cc(N3CCN(C(=O)[C@H]4CCCO4)CC3)c21 [Compound 076H2]	40	14	–
C=CCn1c(=O)n(-c2nnc(C(F)F)s2)c2cc(S(=O)(=O)NC3(C#N)CC3)cc(N3CCN(C(=O)[C@H](C)CC)CC3)c21 [Compound 067Wl]	23	19.7	–
CC(C)C(=O)N1CCN(c2cc(S(=O)(=O)NC3(C)CC3)cc3c2ncn3-c2nnc(C(F)F)s2)CC1 [Compound B002]	16	11.6	–
CC(C)C(=O)N1CCN(c2cc(S(=O)(=O)NC3(C#N)CC3)cc3c2nc(OC2COC2)n3-c2nnc(C(F)F)s2)CC1 [Compound 057N]	9	8.3	–
C[C@H]1CN(c2cc(S(=O)(=O)NC3(C)COC3)cc3c2c2nccnc2n3-c2nnc(C(F)F)s2)C[C@H](C)N1 [Compound 065L]	18	5.5	–
CC(C)c1nc2n(-c3nnc(C(F)F)s3)c3cc(S(=O)(=O)NC4(C)CC4)cc(N4C[C@H](C)N[C@@H](C)C4)c3n2n1 [Compound 065Y]	6	0.8	–
C[C@H]1CN(c2cc(S(=O)(=O)NC3(C)CC3)cc3c2nc(C2CCCO2)n3-c2nnc(C(F)F)s2)C[C@H](C)N1 (some centres unmarked) [Compound 077B]	7	3.4	–
COc1nc2c(N3CCN(C(=O)N(C)C)CC3)cc(S(=O)(=O)NC3(C#N)CC3)cc2n1-c1nnc(C(F)F)s1 [Compound B019]	19	6.3	–
CC(C)C(=O)N1CCC(c2cc(S(=O)(=O)NC3(C#N)CC3)cc3c2ncn3-c2nnc(C(F)F)s2)CC1 [Compound 059D]	40	28.8	–
COC(C)(C)c1nc2n(-c3nnc(C(F)F)s3)c3cc(S(=O)(=O)NC4(C)CC4)cc(N4C[C@H](C)N[C@@H](C)C4)c3n2n1 [Compound 084H]	3	0.7	–
C=CCn1c(=O)n(-c2nnc(C(F)F)s2)c2cc(S(=O)(=O)NC3(CF)CC3)cc(N3CCN(C(=O)C(C)C)CC3)c21 [Compound 068A]	4	3.5	–
C[C@H]1CN(c2cc(S(=O)(=O)NC3(C#N)CC3)cc3c2ncn3-c2nnc(C(F)F)s2)C[C@H](C)N1 [Compound B016]	74	21.2	–
C[C@H]1CN(c2cc(S(=O)(=O)NC3(CF)CC3)cc3c2c2nccnc2n3-c2nnc(C(F)F)s2)C[C@H](C)N1 [Compound 065I]	5	1.8	–
C[C@H]1CN(c2cc(S(=O)(=O)NC3(C)CC3)cc3c2n2nc(C(=O)NC4CC4)nc2n3-c2nnc(C(F)F)s2)C[C@H](C)N1 [Compound 084J]	16	0.7	–
C=CCn1c(=O)n(-c2nnc(C(F)F)s2)c2cc(S(=O)(=O)NC3(C#N)CC3)cc(N3CCN(C(=O)N4CCC4)CC3)c21 [Compound 067B]	15	6.9	–
COCc1nc2c(N3C[C@H](C)N[C@@H](C)C3)cc(S(=O)(=O)NC3(C)CC3)cc2n1-c1nnc(C(F)F)s1 [Compound 077T]	35	27.8	–
C=CCn1c(=O)n(-c2nnc(C(F)F)s2)c2cc(S(=O)(=O)NC3(C#N)CC3)cc(N3CCN(C(=O)C(C)(C)N)CC3)c21 [Compound 067P]	74	5.2	–
CC1(NS(=O)(=O)c2cc(N3CCNCC3)c3ncn(-c4nnc(C(F)F)s4)c3c2)CC1 [Compound B001]	53	44.7	–
CC(C)n1c(=O)n(-c2nnc(C(F)F)s2)c2cc(S(=O)(=O)NC3(C#N)CC3)cc(N3CCN(C(=O)N4CCCC4)CC3)c21 [Compound A047]	13	–	15
Cn1c(=O)n(-c2nnc(C(F)F)s2)c2cc(S(=O)(=O)NC3(C)CC3)cc(N3CCN(C(=O)N4CCCC4)CC3)c21 [Compound A027]	5	3.8	–
